Assay results as given in ChEMBL document CHEMBL4406920, “Tetrazole as a Replacement of the Electrophilic Group in Characteristic Prolyl Oligopeptidase Inhibitors” (ACS Med Chem Lett, 2019).

Experiments:
[1] = molecular target: Prolyl endopeptidase (Sus scrofa, UniProt P23687); assay: Inhibition of recombinant porcine brain PREP expressed in Escherichia coli assessed as formation of 7-amido-4-methylcoumarin using Suc-Gly-Pro-amido-4-methylcoumarin as substrate preincubated for 30 mins followed by substrate addition measured after 60 mins by fluorometric assay
Prolyl endopeptidase (Sus scrofa, UniProt P23687), sequence (P23687 whole entry): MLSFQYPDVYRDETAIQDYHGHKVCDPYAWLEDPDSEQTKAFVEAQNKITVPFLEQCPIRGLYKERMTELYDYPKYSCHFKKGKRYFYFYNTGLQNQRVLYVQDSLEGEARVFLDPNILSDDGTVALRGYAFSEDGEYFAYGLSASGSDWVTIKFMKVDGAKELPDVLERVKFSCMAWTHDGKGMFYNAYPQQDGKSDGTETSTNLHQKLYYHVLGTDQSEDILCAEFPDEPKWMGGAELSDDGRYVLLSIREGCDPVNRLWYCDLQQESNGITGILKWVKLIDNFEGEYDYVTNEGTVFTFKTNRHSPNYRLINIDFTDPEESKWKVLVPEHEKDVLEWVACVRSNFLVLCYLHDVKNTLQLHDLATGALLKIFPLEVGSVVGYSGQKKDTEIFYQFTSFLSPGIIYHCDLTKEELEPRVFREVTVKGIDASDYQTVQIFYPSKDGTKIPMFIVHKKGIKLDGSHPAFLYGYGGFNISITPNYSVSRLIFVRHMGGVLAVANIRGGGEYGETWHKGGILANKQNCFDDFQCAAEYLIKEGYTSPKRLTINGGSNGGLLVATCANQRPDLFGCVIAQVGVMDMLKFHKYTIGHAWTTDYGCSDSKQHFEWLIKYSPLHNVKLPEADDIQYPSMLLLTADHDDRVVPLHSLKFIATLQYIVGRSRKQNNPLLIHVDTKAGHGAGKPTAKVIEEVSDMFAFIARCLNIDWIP

[2] = molecular target: Prolyl endopeptidase (Mus musculus, UniProt Q9QUR6); assay: Inhibition of PREP in C57BL/6 mouse cortex homogenate assessed as formation of 7-amido-4-methylcoumarin using Suc-Gly-Pro-amido-4-methylcoumarin as substrate preincubated for 30 mins followed by substrate addition measured after 60 mins by fluorometric assay
Prolyl endopeptidase (Mus musculus, UniProt Q9QUR6), sequence (Q9QUR6 whole entry): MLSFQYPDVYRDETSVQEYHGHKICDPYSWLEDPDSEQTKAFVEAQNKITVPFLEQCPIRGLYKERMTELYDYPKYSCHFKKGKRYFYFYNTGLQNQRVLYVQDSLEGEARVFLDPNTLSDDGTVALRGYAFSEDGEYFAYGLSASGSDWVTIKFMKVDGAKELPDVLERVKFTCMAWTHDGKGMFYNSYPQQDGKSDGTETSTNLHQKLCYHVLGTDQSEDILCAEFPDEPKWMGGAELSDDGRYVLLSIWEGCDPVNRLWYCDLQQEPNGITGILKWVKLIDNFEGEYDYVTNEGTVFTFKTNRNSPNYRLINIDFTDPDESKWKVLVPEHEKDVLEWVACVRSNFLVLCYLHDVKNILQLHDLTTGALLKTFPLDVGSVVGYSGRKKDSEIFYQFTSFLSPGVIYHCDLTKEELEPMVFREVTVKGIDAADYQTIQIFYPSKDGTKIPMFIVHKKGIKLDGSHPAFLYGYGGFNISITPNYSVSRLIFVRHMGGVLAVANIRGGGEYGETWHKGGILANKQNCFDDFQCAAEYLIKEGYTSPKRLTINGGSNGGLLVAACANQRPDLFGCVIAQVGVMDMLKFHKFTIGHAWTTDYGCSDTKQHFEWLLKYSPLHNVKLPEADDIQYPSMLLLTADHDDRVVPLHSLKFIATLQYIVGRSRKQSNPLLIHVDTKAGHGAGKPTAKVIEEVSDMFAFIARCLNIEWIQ

SMILES | IC50 [1] | IC50 [2]
C[C@H](NC(=O)CCCc1ccccc1)C(=O)N1CCCC1 | 0.147 µM | 
CN(CC(=O)N1CCCC1)C(=O)CCCc1ccccc1 |  | 5.14 µM
CN(CC(=O)N1CCC[C@H]1C#N)C(=O)CCCc1ccccc1 | 0.269 µM | 
CC(C)(NC(=O)CCCc1ccccc1)C(=O)N1CCCC1 |  | 13.5 µM
C[C@H](NC(=O)CCCc1ccccc1)C(=O)N1CCC[C@H]1C(N)=O |  | 6.21 µM
C[C@H](NC(=O)CCCc1ccccc1)C(=O)N1CCC[C@H]1C(=O)O | 17.5 µM | 
C[C@@H](C(=O)N1CCC[C@H]1C(N)=O)N(C)C(=O)CCCc1ccccc1 |  | 28.8 µM
C[C@@H](C(=O)N1CCC[C@H]1C#N)N(C)C(=O)CCCc1ccccc1 | 0.0054 µM | 
C[C@H](NC(=O)CCCc1ccccc1)C(=O)N1CCC[C@H]1C#N | 0.00406 µM | 0.00328 µM
O=C(O)[C@@H]1CCCN1C(=O)[C@@H]1CCCN1C(=O)CCCc1ccccc1 | 3.63 µM | 
O=C(CCCc1ccccc1)NCCC(=O)N1CCCC1 |  | 12.1 µM
C[C@@H](C(=O)N1CCCC1)N(C)C(=O)CCCc1ccccc1 |  | 0.298 µM
C[C@@H](NC(=O)CCCc1ccccc1)C(=O)N1CCCC1 |  | 35.2 µM
NC(=O)[C@@H]1CCCN1C(=O)[C@@H]1CCCN1C(=O)CCCc1ccccc1 | 4.37 µM | 

Further lines, results first:

IC50 [1] | IC50 [2] | SMILES
 | 0.091 µM | C[C@H](NC(=O)CCCc1ccccc1)C(=O)N1CCC[C@H]1c1nnn[nH]1
 | 154 µM | NC(=O)[C@@H]1CCCN1C(=O)CNC(=O)CCCc1ccccc1
10.6 µM |  | CN(CC(=O)N1CCC[C@H]1c1nnn[nH]1)C(=O)CCCc1ccccc1
0.012 µM |  | O=C(CCCc1ccccc1)N1CCC[C@H]1C(=O)N1CCC[C@H]1c1nnn[nH]1
27.2 µM |  | C[C@@H](C(=O)N1CCC[C@H]1c1nnn[nH]1)N(C)C(=O)CCCc1ccccc1
205 µM |  | O=C(CCCc1ccccc1)NCC(=O)N1CCC[C@H]1c1nnn[nH]1
 | 457 µM | CN(CC(=O)N1CCC[C@H]1C(N)=O)C(=O)CCCc1ccccc1
0.22 µM | 0.264 µM | N#C[C@@H]1CCCN1C(=O)CNC(=O)CCCc1ccccc1
